# Where a name gives a salt, the structure may show the parent alone.
# Legend:
# [1] = test system: Pfeiffer cell line (diffuse large B cell lymphoma); assay: Pfeiffer cell proliferation assay; assay type: cell-based; conditions: Homo sapiens, Pfeiffer, Pfeiffer cells, 3-4 days plus 12 hours [3H]-thymidine incorporation
# Procedure: Example C: Pfeiffer Cell Proliferation Assay
# Pfeiffer cell line (diffuse large B cell lymphoma) was purchased from ATCC (Manassas, Va.) and maintained in the culture medium recommended (RPMI and 10% FBS). To measure the anti-proliferation activity of the compounds, the Pfeiffer cells were plated with the culture medium (2×10^3 cells/well/per 200 μl) into 96-well ultra-low binding plates (Corning, Corning, N.Y.), in the presence or absence of a concentration range of test compounds. After 3-4 days, [^3H]-thymidine (1 μCi/well) (PerkinElmer, Boston, Mass.) in PBS was then added to the cell culture for an additional 12 hours before the incorporated radioactivity was separated by filtration with water through GF/B filters (Packard Bioscience, Meridenj, Conn.) and measured by liquid scintillation counting with a TopCount (Packard Bioscience).
# PI3Kδ (p110δ/p85α) = molecular target: T1, PI3Kδ (p110δ/p85α) (Homo sapiens, UniProt O00329); assay: PI3Kδ scintillation proximity assay; assay type: biochemical; conditions: 20 μM ATP, 4 nM PI3Kδ
# T1 construct: purchased Millipore (Bedford, Mass.)
# T1 sequence (O00329 whole entry, species assumed): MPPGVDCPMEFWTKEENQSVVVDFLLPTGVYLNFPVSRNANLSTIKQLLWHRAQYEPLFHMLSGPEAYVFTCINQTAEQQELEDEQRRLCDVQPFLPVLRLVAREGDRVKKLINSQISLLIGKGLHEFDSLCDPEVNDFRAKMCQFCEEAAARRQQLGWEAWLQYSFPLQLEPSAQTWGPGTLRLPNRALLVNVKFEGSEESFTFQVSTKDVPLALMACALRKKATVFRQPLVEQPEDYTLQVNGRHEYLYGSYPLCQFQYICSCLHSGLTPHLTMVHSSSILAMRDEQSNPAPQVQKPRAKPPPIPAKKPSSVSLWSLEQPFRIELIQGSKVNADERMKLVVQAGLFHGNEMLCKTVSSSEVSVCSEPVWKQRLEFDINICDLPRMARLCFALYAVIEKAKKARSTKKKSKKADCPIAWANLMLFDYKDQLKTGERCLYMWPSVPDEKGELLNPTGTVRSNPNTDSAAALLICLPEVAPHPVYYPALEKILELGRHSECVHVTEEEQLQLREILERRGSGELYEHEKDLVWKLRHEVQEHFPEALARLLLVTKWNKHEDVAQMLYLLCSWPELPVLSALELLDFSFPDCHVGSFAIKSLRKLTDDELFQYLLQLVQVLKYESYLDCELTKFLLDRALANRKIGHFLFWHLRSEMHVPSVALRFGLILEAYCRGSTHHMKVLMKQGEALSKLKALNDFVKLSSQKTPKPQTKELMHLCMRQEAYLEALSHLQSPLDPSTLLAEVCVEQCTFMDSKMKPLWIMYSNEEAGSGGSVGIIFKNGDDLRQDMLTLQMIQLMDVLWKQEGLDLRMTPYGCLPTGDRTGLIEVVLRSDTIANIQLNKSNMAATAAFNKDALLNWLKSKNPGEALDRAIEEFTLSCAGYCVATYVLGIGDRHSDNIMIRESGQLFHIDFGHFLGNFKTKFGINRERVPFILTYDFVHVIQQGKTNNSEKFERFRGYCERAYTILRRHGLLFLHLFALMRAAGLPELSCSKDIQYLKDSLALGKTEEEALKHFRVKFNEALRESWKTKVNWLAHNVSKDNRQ
# T1 sequence (P27986 whole entry partner, species assumed): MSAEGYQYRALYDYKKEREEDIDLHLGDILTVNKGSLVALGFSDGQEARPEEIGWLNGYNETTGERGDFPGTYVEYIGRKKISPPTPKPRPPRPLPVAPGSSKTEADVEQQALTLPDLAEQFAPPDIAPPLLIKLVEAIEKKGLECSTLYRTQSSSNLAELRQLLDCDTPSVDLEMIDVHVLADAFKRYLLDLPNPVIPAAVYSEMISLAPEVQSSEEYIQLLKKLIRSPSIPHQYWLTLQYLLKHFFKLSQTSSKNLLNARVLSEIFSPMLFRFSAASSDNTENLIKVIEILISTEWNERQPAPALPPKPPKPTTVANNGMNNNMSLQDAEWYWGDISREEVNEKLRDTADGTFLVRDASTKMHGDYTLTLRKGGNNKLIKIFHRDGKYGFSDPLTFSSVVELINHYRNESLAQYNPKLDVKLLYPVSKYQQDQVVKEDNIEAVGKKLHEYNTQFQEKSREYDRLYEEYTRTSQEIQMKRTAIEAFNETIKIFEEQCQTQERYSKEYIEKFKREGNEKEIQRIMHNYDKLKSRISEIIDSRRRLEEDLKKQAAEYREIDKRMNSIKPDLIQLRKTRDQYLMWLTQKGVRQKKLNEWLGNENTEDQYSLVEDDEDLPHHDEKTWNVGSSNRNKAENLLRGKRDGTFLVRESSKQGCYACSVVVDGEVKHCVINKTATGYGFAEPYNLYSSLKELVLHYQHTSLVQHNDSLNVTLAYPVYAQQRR
# Method in brief: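 p110δ/p85α (4 nM) phosphorylated 20 μM PIP2 with 20 μM ATP plus [γ-33P]ATP in 20 mM MOPS pH 6.7, 10 mM MgCl2, 5 mM DTT, 0.03% CHAPS, 0.5% DMSO, 210 min at room temperature. EDTA quench, WGA SPA bead capture, scintillation counting; IC50 from log-concentration fit.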
IC50 [1] [nM],IC50 (PI3Kδ (p110δ/p85α)) [nM],Compound
100 to 500,< 50,"COc1c(C(C)Nc2ncnc3[nH]cnc23)cc(Cl)c(C)c1-c1ccc(-n2cccn2)cc1 (stereo not drawn) [Example 43, N-{1-[5-chloro-2-methoxy-6-methyl-4′-(1H-pyrazol-1-yl)biphenyl-3-yl]ethyl}-9H-purin-6-amine]"
100 to 500,< 50,"COCc1cccc(-c2c(C)c(Cl)cc(C(C)Nc3ncnc4[nH]cnc34)c2OC)c1 (stereo not drawn) [Example 44, N-{1-[5-chloro-2-methoxy-3′-(methoxymethyl)-6-methylbiphenyl-3-yl]ethyl}-9H-purin-6-amine]"
100 to 500,< 50,"COc1c(C(C)Nc2ncnc3[nH]cnc23)cc(Cl)c(C)c1-c1ccc(OC2CCOCC2)nc1 (stereo not drawn) [Example 45, N-(1-{5-chloro-2-methoxy-4-methyl-3-[6-(tetrahydro-2H-pyran-4-yloxy)pyridin-3-yl]phenyl}ethyl)-9H-purin-6-amine]"
< 100,< 50,"COc1c(C(C)Nc2ncnc3[nH]cnc23)cc(Cl)c(C)c1-c1cccc(CC#N)c1 (stereo not drawn) [Example 46, {3′-chloro-6′-methoxy-2′-methyl-5′-[1-(9H-purin-6-ylamino)ethyl]biphenyl-3-yl}acetonitrile]"
> 1000,100 to 250,"COc1c(C(C)Nc2ncnc3[nH]cnc23)cc(Cl)c(C)c1-c1cc(Cl)cc(Cl)c1 (stereo not drawn) [Example 47, N-[1-(3′,5,5′-trichloro-2-methoxy-6-methylbiphenyl-3-yl)ethyl]-9H-purin-6-amine]"
< 100,< 50,"COc1c(C(C)Nc2ncnc3[nH]cnc23)cc(Cl)c(C)c1-c1ccc(N2CCOCC2)nc1 (stereo not drawn) [Example 48, N-{1-[5-chloro-2-methoxy-4-methyl-3-(6-morpholin-4-ylpyridin-3-yl)phenyl]ethyl}-9H-purin-6-amine]"
< 100,< 50,"COc1c(C(C)Nc2ncnc3[nH]cnc23)cc(Cl)c(C)c1-c1ccnc(N2CCOCC2)c1F (stereo not drawn) [Example 49, N-{1-[5-chloro-3-(3-fluoro-2-morpholin-4-ylpyridin-4-yl)-2-methoxy-4-methylphenyl]ethyl}-9H-purin-6-amine]"
< 100,< 50,"COc1c(C(C)Nc2ncnc3[nH]cnc23)cc(Cl)c(C)c1-c1ccc(F)nc1 (stereo not drawn) [Example 51, N-{1-[5-chloro-3-(6-fluoropyridin-3-yl)-2-methoxy-4-methylphenyl]ethyl}-9H-purin-6-amine]"
< 100,< 50,"COc1ccc(-c2c(C)c(Cl)cc(C(C)Nc3ncnc4[nH]cnc34)c2OC)cn1 (stereo not drawn) [Example 52, N-{1-[5-chloro-2-methoxy-3-(6-methoxypyridin-3-yl)-4-methylphenyl]ethyl}-9H-purin-6-amine]"
> 1000,< 50,"COc1c(C(C)Nc2ncnc3[nH]cnc23)cc(Cl)c(C)c1N1CCC(O)CC1 (stereo not drawn) [Example 60, 1-{3-Chloro-6-methoxy-2-methyl-5-[1-(9H-purin-6-ylamino)ethyl]phenyl}piperidin-4-ol]"
< 100,< 50,"Cc1noc(C)c1-c1c(C)c(Cl)cc(C(C)Nc2ncnc3[nH]cnc23)c1-c1cccc(F)c1 (stereo not drawn) [Example 71, N-{1-[4-chloro-6-(3,5-dimethylisoxazol-4-yl)-3′-fluoro-5-methylbiphenyl-2-yl]ethyl}-9H-purin-6-amine trifluoroacetate]"
< 100,< 50,"Cc1c(Cl)cc(C(C)Nc2ncnc3[nH]cnc23)c(-c2cccc(F)c2)c1-c1cn[nH]c1 (stereo not drawn) [Example 72, N-{1-[4-Chloro-3′-fluoro-5-methyl-6-(1H-pyrazol-4-yl)biphenyl-2-yl]ethyl}-9H-purin-6-amine trifluoroacetate]"
< 100,< 50,"Cc1c(Cl)cc(C(C)Nc2ncnc3[nH]cnc23)c(-c2cccc(F)c2)c1-c1ccnn1C (stereo not drawn) [Example 74, N-{1-[4-chloro-3′-fluoro-5-methyl-6-(1-methyl-1H-pyrazol-5-yl)biphenyl-2-yl]ethyl}-9H-purin-6-amine]"
< 100,< 50,"Cc1nn(C)c(C)c1-c1c(C)c(Cl)cc(C(C)Nc2ncnc3[nH]cnc23)c1-c1cccc(F)c1 (stereo not drawn) [Example 75, N-{1-[4-chloro-3′-fluoro-5-methyl-6-(1,3,5-trimethyl-1H-pyrazol-4-yl)biphenyl-2-yl]ethyl}-9H-purin-6-amine]"
< 100,< 50,"Cc1c(Cl)cc(C(C)Nc2ncnc3[nH]cnc23)c(-c2cc(F)cc(F)c2)c1-c1ccncc1 (stereo not drawn) [Example 76, N-[1-(4-Chloro-3′,5′-difluoro-5-methyl-6-pyridin-4-ylbiphenyl-2-yl)ethyl]-9H-purin-6-amine bis(trifluoroacetate)]"
< 100,< 50,"Cc1noc(C)c1-c1c(C)c(Cl)cc(C(C)Nc2ncnc3[nH]cnc23)c1-c1cc(F)cc(F)c1 (stereo not drawn) [Example 77, N-{1-[4-chloro-6-(3,5-dimethylisoxazol-4-yl)-3′,5′-difluoro-5-methylbiphenyl-2-yl]ethyl}-9H-purin-6-amine]"
< 100,< 50,"Cc1c(Cl)cc(C(C)Nc2ncnc3[nH]cnc23)c(-c2cc(F)cc(F)c2)c1-c1cccnc1 (stereo not drawn) [Example 78, N-[1-(4-chloro-3′,5′-difluoro-5-methyl-6-pyridin-3-ylbiphenyl-2-yl)ethyl]-9H-purin-6-amine]"
100 to 500,100 to 250,"Cc1c(Cl)cc(C(C)Nc2ncnc3[nH]cnc23)c(-c2cc(F)cc(F)c2)c1-c1ccc(C#N)cc1 (stereo not drawn) [Example 79, 5′-chloro-3″,5″-difluoro-6′-methyl-3′-[1-(9H-purin-6-ylamino)ethyl]-1,1′:2′,1″-terphenyl-4-carbonitrile]"
< 100,< 50,"Cc1c(Cl)cc(C(C)Nc2ncnc3[nH]cnc23)c(-c2cc(F)cc(F)c2)c1-c1cc(F)nc(F)c1 (stereo not drawn) [Example 80, N-{1-[4-chloro-6-(2,6-difluoropyridin-4-yl)-3′,5′-difluoro-5-methylbiphenyl-2-yl]ethyl}-9H-purin-6-amine]"
< 100,< 50,"Cc1c(Cl)cc(C(C)Nc2ncnc3[nH]cnc23)c(-c2cc(F)cc(F)c2)c1-c1cncnc1 (stereo not drawn) [Example 81, N-[1-(4-chloro-3′,5′-difluoro-5-methyl-6-pyrimidin-5-ylbiphenyl-2-yl)ethyl]-9H-purin-6-amine]"
< 100,< 50,"COc1ncc(-c2c(C)c(Cl)cc(C(C)Nc3ncnc4[nH]cnc34)c2-c2cc(F)cc(F)c2)cn1 (stereo not drawn) [Example 82, N-{1-[4-chloro-3′,5′-difluoro-6-(2-methoxypyrimidin-5-yl)-5-methylbiphenyl-2-yl]ethyl}-9H-purin-6-amine]"
< 100,< 50,"CC(=O)Nc1ccc(-c2c(C)c(Cl)cc(C(C)Nc3ncnc4[nH]cnc34)c2-c2cc(F)cc(F)c2)cc1 (stereo not drawn) [Example 83, N-{5′-chloro-3″,5″-difluoro-6′-methyl-3′-[1-(9H-purin-6-ylamino)ethyl]-1,1′:2′,1″-terphenyl-4-yl}acetamide]"
< 100,< 50,"COc1c(C(C)Nc2ncnc3[nH]cnc23)cc(Cl)c(C)c1-c1ccnc(F)c1 (stereo not drawn) [Example 84, N-{1-[5-chloro-3-(2-fluoropyridin-4-yl)-2-methoxy-4-methylphenyl]ethyl}-9H-purin-6-amine]"
< 100,< 50,"COc1c(C(C)Nc2ncnc3[nH]cnc23)cc(Cl)c(C)c1-c1cnc(F)c(C)c1 (stereo not drawn) [Example 87, N-{1-[5-chloro-3-(6-fluoro-5-methylpyridin-3-yl)-2-methoxy-4-methylphenyl]ethyl}-9H-purin-6-amine]"

# — patent US9815839B2, “N-(1-(substituted-phenyl)ethyl)-9H-purin-6-amines as PI3K inhibitors” (Incyte Corporation, priority 2010, dated 2017)
